Laboratory results from ChEMBL document CHEMBL1201862, “PubChem BioAssay data set” (2004).
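Cells were grown in 96-well plates and exposed to each compound for 48 hours at five concentrations; endpoints were interpolated linearly between bracketing concentrations, or set to the highest concentration if not reached. GI50 marks 50% less growth.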 Active and inactive are the calls of the source. No stated cut-off is given here; in the data, active = GI50 up to about 1.1 µM and inactive = higher.

Columns and labels:
Experiment in all cases: DTP human tumour cell line panel, 48 h
786-0 = tested on: 786-0
A549 = tested on: A549
ACHN = tested on: ACHN
EKVX = tested on: EKVX
HCC 2998 = tested on: HCC 2998
HL-60 = tested on: HL-60
IGROV-1 = tested on: IGROV-1
LOX IMVI = tested on: LOX IMVI
MDA-N = tested on: MDA-N
NCI-H226 = tested on: NCI-H226
NCI-H23 = tested on: NCI-H23
NCI-H460 = tested on: NCI-H460
OVCAR-5 = tested on: OVCAR-5
OVCAR-8 = tested on: OVCAR-8
RXF 393 = tested on: RXF 393
SR = tested on: SR
T47D = tested on: T47D
U-251 = tested on: U-251
UACC-257 = tested on: UACC-257
UO-31 = tested on: UO-31

Row | SMILES | GI50 (786-0) | GI50 (A549) | GI50 (ACHN) | GI50 (EKVX) | GI50 (HCC 2998) | GI50 (HL-60) | GI50 (IGROV-1) | GI50 (LOX IMVI) | GI50 (MDA-N) | GI50 (NCI-H226) | GI50 (NCI-H23) | GI50 (NCI-H460) | GI50 (OVCAR-5) | GI50 (OVCAR-8) | GI50 (RXF 393) | GI50 (SR) | GI50 (T47D) | GI50 (U-251) | GI50 (UACC-257) | GI50 (UO-31)
1 | C1CNCCNCCN1 | > 100 µM (inactive) | > 100 µM (inactive) | > 100 µM (inactive) | > 100 µM (inactive) | > 100 µM (inactive) | > 100 µM (inactive) | > 100 µM (inactive) | > 100 µM (inactive) | > 100 µM (inactive) | > 100 µM (inactive) | > 100 µM (inactive) | > 100 µM (inactive) | > 100 µM (inactive) | > 100 µM (inactive) | > 100 µM (inactive) | > 100 µM (inactive) | > 100 µM (inactive) | > 100 µM (inactive) | > 100 µM (inactive) | > 100 µM (inactive)
2 | COc1ccc(NC(=O)CC(=O)n2nc(-c3ccccc3)c(/N=N/c3ccc(C)cc3)c2-c2ccccc2)cc1 | 19.2 µM (inactive) | 44 µM (inactive) | 32.5 µM (inactive) | 21.8 µM (inactive) | 62.8 µM (inactive) | > 100 µM (inactive) | 16.9 µM (inactive) | 38.8 µM (inactive) | > 100 µM (inactive) | 21.7 µM (inactive) | 28.4 µM (inactive) | 35.3 µM (inactive) | > 80 µM (inactive) | 21.7 µM (inactive) | 19.1 µM (inactive) | 47.2 µM (inactive) | 36.1 µM (inactive) | 20.8 µM (inactive) | 57.8 µM (inactive) | 29.3 µM (inactive)
3 | C[N+](C)(N)Cc1nc(-c2ccc(Cl)cc2)no1 | > 100 µM (inactive) | > 100 µM (inactive) | > 100 µM (inactive) | 37.7 µM (inactive) | – | > 100 µM (inactive) | > 100 µM (inactive) | > 100 µM (inactive) | > 100 µM (inactive) | > 100 µM (inactive) | > 100 µM (inactive) | > 100 µM (inactive) | > 100 µM (inactive) | > 100 µM (inactive) | > 100 µM (inactive) | 26.8 µM (inactive) | 22.9 µM (inactive) | > 100 µM (inactive) | > 100 µM (inactive) | –
4 | CCC(=O)C1(c2ccccc2)CCN(C)CC1 | > 100 µM (inactive) | > 100 µM (inactive) | > 100 µM (inactive) | > 100 µM (inactive) | > 100 µM (inactive) | > 100 µM (inactive) | > 100 µM (inactive) | – | > 100 µM (inactive) | – | > 100 µM (inactive) | > 100 µM (inactive) | > 100 µM (inactive) | > 100 µM (inactive) | > 100 µM (inactive) | > 100 µM (inactive) | > 100 µM (inactive) | > 100 µM (inactive) | > 100 µM (inactive) | > 100 µM (inactive)
5 | COc1ccc2cc(/C=N\NC(=O)Nc3ccc([N+](=O)[O-])cc3)ccc2c1 | 8.59 µM (inactive) | 11.2 µM (inactive) | 13.9 µM (inactive) | 14 µM (inactive) | 14.2 µM (inactive) | 11 µM (inactive) | 13.8 µM (inactive) | 12 µM (inactive) | 13 µM (inactive) | > 10 µM (inactive) | 11.4 µM (inactive) | 12.4 µM (inactive) | 18.5 µM (inactive) | 11.7 µM (inactive) | 11.2 µM (inactive) | > 10 µM (inactive) | 14.2 µM (inactive) | 13.6 µM (inactive) | 14.6 µM (inactive) | 13.6 µM (inactive)
6 | COC(=O)NC(Nc1ccc(Cl)cc1Cl)(C(F)(F)F)C(F)(F)F | > 100 µM (inactive) | 38.4 µM (inactive) | 10.5 µM (inactive) | 48.9 µM (inactive) | 45.7 µM (inactive) | 29.3 µM (inactive) | 61.7 µM (inactive) | 40.6 µM (inactive) | 34.7 µM (inactive) | > 100 µM (inactive) | > 100 µM (inactive) | 30 µM (inactive) | > 100 µM (inactive) | 70.8 µM (inactive) | > 100 µM (inactive) | 5.31 µM (inactive) | 47 µM (inactive) | 54.1 µM (inactive) | > 100 µM (inactive) | 18 µM (inactive)
7 | CSc1nc(C)c2c(n1)N(c1ccc(Cl)cc1)CC2 | 77.1 µM (inactive) | > 100 µM (inactive) | > 100 µM (inactive) | > 100 µM (inactive) | > 100 µM (inactive) | – | > 100 µM (inactive) | > 100 µM (inactive) | > 100 µM (inactive) | > 100 µM (inactive) | > 100 µM (inactive) | > 100 µM (inactive) | > 100 µM (inactive) | > 100 µM (inactive) | > 100 µM (inactive) | > 100 µM (inactive) | > 100 µM (inactive) | > 100 µM (inactive) | > 100 µM (inactive) | 0.342 µM (active)
8 | CCCCCCCCCCCCCC1=C(O)C(=O)C(CC2=C(O)C(=O)C(CCCCCCCCCCCCC)=C(O)C2=O)=C(O)C1=O | > 100 µM (inactive) | > 100 µM (inactive) | 30.8 µM (inactive) | > 100 µM (inactive) | – | 32.8 µM (inactive) | > 100 µM (inactive) | > 100 µM (inactive) | > 100 µM (inactive) | > 100 µM (inactive) | > 100 µM (inactive) | – | > 100 µM (inactive) | > 100 µM (inactive) | 6.11 µM (inactive) | 54.1 µM (inactive) | > 100 µM (inactive) | 68.2 µM (inactive) | > 100 µM (inactive) | > 100 µM (inactive)
9 | O=c1c2ccccc2oc2c1ccc1ncccc12 | 12.3 µM (inactive) | 5.4 µM (inactive) | 5.55 µM (inactive) | 8.2 µM (inactive) | 30.4 µM (inactive) | 9.35 µM (inactive) | 11 µM (inactive) | 5.24 µM (inactive) | 20 µM (inactive) | 13.3 µM (inactive) | 16.2 µM (inactive) | 3.56 µM (inactive) | 1.4 µM (inactive) | 11.8 µM (inactive) | 13.4 µM (inactive) | 8.87 µM (inactive) | 12.1 µM (inactive) | – | 20.7 µM (inactive) | 5.93 µM (inactive)
10 | Clc1cc(Cl)cc(/N=C/C=C/Nc2cc(Cl)cc(Cl)c2)c1 | 17.3 µM (inactive) | 18.3 µM (inactive) | 20.1 µM (inactive) | 5.12 µM (inactive) | 15.2 µM (inactive) | 19.1 µM (inactive) | 22.6 µM (inactive) | – | 19.4 µM (inactive) | 14.4 µM (inactive) | 14.2 µM (inactive) | 19.1 µM (inactive) | 21.6 µM (inactive) | 20.4 µM (inactive) | 17.3 µM (inactive) | 31.8 µM (inactive) | 22.9 µM (inactive) | 17.6 µM (inactive) | 33.7 µM (inactive) | 23.4 µM (inactive)
11 | COc1ccc(NC(=O)CSC(=O)c2ccccc2)c(SCCSSCCSc2cc(OC)ccc2NC(=O)CSC(=O)c2ccccc2)c1 | > 100 µM (inactive) | > 100 µM (inactive) | > 100 µM (inactive) | 72.9 µM (inactive) | – | 4.22 µM (inactive) | 67.5 µM (inactive) | 20.7 µM (inactive) | > 100 µM (inactive) | > 100 µM (inactive) | 73.3 µM (inactive) | 4.62 µM (inactive) | > 100 µM (inactive) | > 100 µM (inactive) | > 100 µM (inactive) | 3.75 µM (inactive) | 28.7 µM (inactive) | > 100 µM (inactive) | > 100 µM (inactive) | 73.6 µM (inactive)
12 | COc1nc(C#CCCCC#N)nc(OC)n1 | 11.1 µM (inactive) | 15.8 µM (inactive) | 8.93 µM (inactive) | 19.8 µM (inactive) | – | 4.13 µM (inactive) | 17.3 µM (inactive) | 2.08 µM (inactive) | 15.7 µM (inactive) | – | 13.8 µM (inactive) | 26.3 µM (inactive) | 13.5 µM (inactive) | 21.2 µM (inactive) | 15.6 µM (inactive) | 7.38 µM (inactive) | 35.4 µM (inactive) | 13.4 µM (inactive) | 18.9 µM (inactive) | 11.1 µM (inactive)
13 | Cc1ccc(N)cc1.O=S(=O)(O)/C(=C\c1ccccc1)c1ccccc1 | > 100 µM (inactive) | > 100 µM (inactive) | > 100 µM (inactive) | > 100 µM (inactive) | – | 53.2 µM (inactive) | > 100 µM (inactive) | > 100 µM (inactive) | > 100 µM (inactive) | > 100 µM (inactive) | > 100 µM (inactive) | > 100 µM (inactive) | > 100 µM (inactive) | > 100 µM (inactive) | > 100 µM (inactive) | > 100 µM (inactive) | > 100 µM (inactive) | > 100 µM (inactive) | > 100 µM (inactive) | 70.6 µM (inactive)
14 | O=C1NC(=O)C2(CCC(O)C2)c2cc[n+]([O-])cc21 (stereo not given) | > 100 µM (inactive) | > 100 µM (inactive) | > 100 µM (inactive) | 71.8 µM (inactive) | > 100 µM (inactive) | – | > 100 µM (inactive) | > 100 µM (inactive) | > 100 µM (inactive) | > 100 µM (inactive) | > 100 µM (inactive) | > 100 µM (inactive) | > 100 µM (inactive) | > 100 µM (inactive) | > 100 µM (inactive) | > 100 µM (inactive) | > 100 µM (inactive) | > 100 µM (inactive) | > 100 µM (inactive) | > 100 µM (inactive)
15 | COC(=O)[C@]1(Cc2ccc3ccccc3c2)CCCCCCN1C(=O)c1ccccc1 | > 37 µM (inactive) | > 100 µM (inactive) | > 34.4 µM (inactive) | > 27.7 µM (inactive) | > 34 µM (inactive) | – | > 37.8 µM (inactive) | 16.7 µM (inactive) | > 38 µM (inactive) | > 37.9 µM (inactive) | > 29.3 µM (inactive) | > 34.4 µM (inactive) | > 38 µM (inactive) | > 33.3 µM (inactive) | > 32.2 µM (inactive) | > 100 µM (inactive) | > 30.3 µM (inactive) | > 26.7 µM (inactive) | 12.5 µM (inactive) | > 21 µM (inactive)
